Data taken from US20240352145A1, “EFFICACY OF ANTI-TROP-2-SN-38 ANTIBODY DRUG CONJUGATES FOR THERAPY OF TUMORS RELAPSED/REFRACTORY TO CHECKPOINT INHIBITORS” (Immunomedics, Inc., priority 2016, published 2024).
“And” between values parts separate entries of the source, which are not always exact repeats. Equal values may be shown once.

Assays:
[1] = system: Trop-2+ human gastric carcinoma xenografts (NCI-N87); assay: Effect of DAR on efficacy, NCI-N87 xenograft; assay type: in vivo, mouse; conditions: for median survival time (MST): 2 treatments 7 days apart, 0.5 mg
Description: Effect of DAR on pharmacokinetics and anti-tumor efficacy in mice.

[2] = system: metastatic epithelial tumors; assay: Phase I trial of sacituzumab govitecan (25 patients); assay type: in vivo, human
Experimental: The trial was designed as a standard 3+3 Phase I design, starting at a dose of 8 mg/kg per injection, with dosages given weekly for 2 weeks in a 3-week treatment cycle.
Prior to the start of each infusion, most patients received acetaminophen, anti-histamines (H1 and H2 blockers), and dexamethasone. Prophylactic use of antiemetics or anti-diarrheal medications was prohibited. Therapy consisted of 2 consecutive doses given on days 1 and 8 of a 3-week treatment cycle, with the intent to allow patients to continue treatment for up to 8 cycles (i.e., 16 treatments) unless there was unacceptable toxicity or progression. Patients showing disease stabilization or response after 8 cycles could continue treatments.
The maximum tolerated dose (MTD) was judged on the patient's tolerance to the first treatment cycle.

[3] = system: human gastric carcinoma xenografts (NCI-N87); assay: NCI-N87 xenograft, comparison of anti-Trop-2 ADCs; assay type: in vivo, mouse
Experimental: NCI-N87 cells were expanded in tissue culture and harvested with trypsin/EDTA. Female athymic nude mice were injected s.c. with 200 μL of NCI-N87 cell suspension mixed 1:1 with matrigel such that 1×10^7 cells was administered to each mouse. Once tumors reached approximately 0.25 cm^3 in size (6 days later), the animals were divided up into seven different treatment groups of nine mice each. For the SN-38 ADCs, mice received 500 μg i.v. injections once a week for two weeks. Control mice received the non-tumor targeting hA20-SN-38 ADC at the same dose/schedule. A final group of mice received only saline and served as the untreated control. Tumors were measured and mice weighed twice a week. Mice were euthanized for disease progression if their tumor volumes exceeded 1.0 cm^3 in size.

[4] = system: Capan-1; assay: In vitro cytotoxicity, Capan-1
Description: Cell lines, antibodies, and chemotherapeutics—All human cancer cell lines used in this study were purchased from the American Type Culture Collection.

[5] = system: BxPC-3; assay: Cytotoxicity (MTS), Example 6, BxPC-3; assay type: cell-based, human; conditions: BxPC-3, 96 h
Experimental: (§1) One day prior to adding the ADCs, cells were harvested from tissue culture and plated into 96-well plates. […] Plates were incubated at 37° C. for 96 h. […] Growth inhibition was measured as a percent of growth relative to untreated cells using Microsoft Excel and Prism software (non-linear regression to generate sigmoidal dose response curves which yield IC50-values.

[6] = system: Capan-1; assay: Cytotoxicity (MTS), Example 6, Capan-1; assay type: cell-based, human; conditions: Capan-1, 96 h
Experimental: as §1

[7] = biological target: T1, recombinant mouse Trop-2 (Mus musculus, UniProt Q8BGV3); assay: Trop-2 ELISA, murine; assay type: binding
T1 construct: purchased Sino Biological, Inc. 50922-M08H
T1 sequence (Q8BGV3 25-317): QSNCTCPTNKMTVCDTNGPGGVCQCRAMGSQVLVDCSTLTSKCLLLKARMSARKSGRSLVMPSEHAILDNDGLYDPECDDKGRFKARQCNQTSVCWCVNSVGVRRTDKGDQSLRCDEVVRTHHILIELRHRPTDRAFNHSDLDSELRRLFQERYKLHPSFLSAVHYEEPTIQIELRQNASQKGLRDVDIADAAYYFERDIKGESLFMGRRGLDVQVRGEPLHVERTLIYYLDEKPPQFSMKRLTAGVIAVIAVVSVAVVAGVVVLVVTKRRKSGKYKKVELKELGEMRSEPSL
Experimental: Trop-2 ELISA—Recombinant human Trop-2 with a His-tag (Sino Biological, Inc., Bejing, China; Cat #10428-H09H) and recombinant mouse Trop-2 with a His-Tag (Sino Biological, Inc., Cat #50922-M08H) were plated onto Ni-NTA Hissorb strips (Qiagen GmbH Cat #35023) at 1 μg for 1 h at room temperature. The plate was washed four times with PBS-Tween (0.05%) wash buffer. Serial dilutions of hRS7 were made in 1% BSA-PBS dilution buffer to a test range of 0.1 ng/mL to 10 μg/mL. The plates were then incubated for 2 h at room temperature before being washed four times followed by the addition of a peroxidase conjugated secondary antibody (goat anti-human, Fc fragment specific; Jackson Immunoresearch Cat #109-036-098). After a 45-min incubation, the plate was washed and a substrate solution (o-phenylenediamine dihydrochloride (OPD); Sigma, Cat #P828) added to all the wells. Plates were incubated in the dark for 15 min before the reaction was stopped with 4N sulfuric acid. The plates were read at 450 nm on Biotek ELX808 plate reader. Data were analyzed and graphed using Prism GraphPad Software (v4.03) (Advanced Graphics Software, Inc.; Encinitas, CA).

[8] = update of on-going trial, 17 TNBC patients

IMMU-132
median survival time (MST) ([1]; DAR 1.64): 21 days | median survival time (MST) ([1]; DAR 3.28 (printed 3.38)): 25 days | tumor growth inhibition (AUC) ([1]; DAR 6.89, 0.5 mg twice weekly for two weeks vs DAR 3.28, 1 mg): inhibited tumor growth significantly more than tumor-bearing animals treated with the 3.28 DAR conjugate | median survival time (MST) ([1]; DAR 6.89): 39 days | Delay/adjustment 1st cycle, patients ([2]; 8 mg/kg, 7 patients treated): 1 | Dose-limiting toxicity 1st cycle, patients ([2]; 8 mg/kg, 7 patients treated): 0 | patients with grade-3 diarrhea ([2]; 10 mg/kg dose level): 1 | Delay/adjustment 1st cycle, patients ([2]; 10 mg/kg, 6 patients treated): 0 | Dose-limiting toxicity 1st cycle, patients ([2]; 10 mg/kg, 6 patients treated): 0 | Delay/adjustment 1st cycle, patients ([2]; 12 mg/kg, 9 patients treated): 5 | Dose-limiting toxicity 1st cycle, patients ([2]; 12 mg/kg, 9 patients treated, listed as sacituzumab govitecan): 0/9 and 0 | Delay/adjustment 1st cycle, patients ([2]; 18 mg/kg, 3 patients treated): 2 | median time to progression ([2]; 24 patients): 3.6 months | time to progression, range ([2]; 24 patients): 1-12.8 months | febrile neutropenia, patients ([2]; 25 patients): 2 | long-term survival (15-20 months) ([2]; 25 patients): ~25% | patients with >30% reduction of target lesions ([2]; 25 patients): 12% | patients with SD ([2]; 25 patients): 60% | free SN-38 as share of total SN-38, average ([2]; 28 30-min serum samples from 7 patients, HPLC): 2.91±0.91% | infusion-related adverse events ([2]; 297 infusions over 2-3 h): no infusion-related adverse events | adverse event possibly related to treatment ([2]; GC patient #9, 1 dose of 10 mg/kg): grade 3 febrile neutropenia | progressed (PD) as best response, patients ([2]; RECIST 1.1): 7 | partial responses, patients ([2]; RECIST 1.1, 25 patients): 3 | stable disease as best response, patients ([2]; RECIST 1.1, 25 patients, listed as Sacituzumab govitecan): 15 | stable disease as best response, patients ([2]; RECIST 1.1, 25 patients, listed as sacituzumab govitecan): Fifteen | tumor shrinkage ([2]; SCLC patient who failed prior topoisomerase I inhibitor therapy): 38% | median time to progression ([2]; advanced pancreatic ductal cancer, N=7): 2.9 months | tumor shrinkage ([2]; colon cancer patient who failed prior topoisomerase I inhibitor therapy): 13% | intact conjugate in trough serum samples ([2]; drawn immediately before next dose): no sacituzumab govitecan could be detected | antibody response to hRS7 IgG or SN-38 ([2]; multiple cycles for up to 12 months): no antibody response to the hRS7 IgG or SN-38 was detected | reduction in target lesions ([2]; patient 10, CRC, 5 doses of 10 mg/kg): 23% | maximum reduction in target lesions ([2]; patient 10, CRC, after 18 doses): 28% | plasma CEA ([2]; patient 10, CRC, baseline 38.5 ng/mL): 1.6 ng/mL | time to progression ([2]; patient 18, TNBC): 45 weeks | reduction in target lesions ([2]; patient 18, TNBC, after 3 doses): 13% | reduction in target lesions ([2]; patient 18, TNBC, after 16 doses): 19% | period until progression ([2]; patient 20, HRPC, 34 treatments): 12.7 months | period of SD ([2]; patient 25, esophageal cancer, 18 then 13.5 mg/kg): 30 weeks | period of disease stabilization ([2]; patient #11, PDC): 15 weeks | CA19-9 serum titer ([2]; patient #11, PDC, 10 mg/kg, after 8 doses, baseline 5880): 2840 units/mL | SN-38 bound to the IgG ([2]; patient #25, 13.5 mg/kg): 96.8% | free SN-38, average ([2]; patient #25, 13.5 mg/kg): 105.4 ± 47.7 ng/mL | free SN-38G as share of total SN-38+SN-38G ([2]; patient #25, 13.5 mg/kg): 11.6% | free SN-38G, average ([2]; patient #25, 13.5 mg/kg): 13.9 ± 4.1 ng/mL | total SN-38, average ([2]; patient #25, 13.5 mg/kg, 11 peak acid-hydrolyzed samples): 3309.8 ± 601.8 ng/mL | Free SN-38G ([2]; patient #25, 18 mg/kg): 26.2 ng/mL | free SN-38 (non-hydrolyzed sample) ([2]; patient #25, 18 mg/kg): 155.2 ng/mL | free SN-38G as share of total unbound SN-38+SN-38G ([2]; patient #25, 18 mg/kg): 14.4% | free SN-38 as share of total ([2]; patient #25, 18 mg/kg): 3.0% | total SN-38 (acid-hydrolyzed sample) ([2]; patient #25, 18 mg/kg): 5,089 ng/mL | SN-38G as share of free SN-38 levels in serum ([2]; patients): 20-40% | median time to progression ([2]; patients with SD or PR (N=18)): 4.1 months | time to progression, range ([2]; patients with SD or PR (N=18)): 2.6-12.8 months | patients with response or disease stabilization ([2]; patients with prior topoisomerase I inhibitor): 7 of 9 | SN-38 in serum bound to IgG ([2]; peak samples, 30 min after infusion): > 96% | time to progression from onset of therapy ([2]; responder with SCLC): 2.9 months | time to progression from onset of therapy ([2]; responder with TNBC): 4.3 months | time to progression from onset of therapy ([2]; responder with colon cancer): 7.1 months | reduction of target lesions ([2]; two of nine patients with prior topoisomerase-I inhibitor therapy, listed as sacituzumab govitecan): 28% and 38% | clinical benefit rate (PR+SD≥6 months) [2, 8]: 46% | overall response rate (PR) [2, 8]: 29% | tumor growth (AUC) vs saline and hA20-SN-38 ([3]; 500 μg i.v. once a week for two weeks): significantly inhibited tumor growth | mean time to tumor progression (TTP) ([3]; mouse, in vivo): 18.4 ± 3.3 days | mice with stable disease ([3]; nine mice per group): 7 of 9 | IC50 [4]: 6.99 nM | IC50 [5]: 2.6 nM | IC50 [6]: 3.5 nM

hRS7 IgG
cross-reactivity [7]: no cross-reactivity with the murine Trop-2
